The nature of data set [1]: Cytotoxicity by intracellular ATP levels. It is filed as cell-based. The note with it: human, Huh5-2 cells, read-out: HCV Replicon 1b CC50. The protocol: (§1) The HCV RNA replication inhibitory effect of the novel compounds and their impact on cell viability was tested in the stable cell line Huh5-2 carrying an HCV subgenomic reporter replicon of genotype 1b (strain Con1). The viral replication level was measured in terms of the activity of the co-expressed firefly luciferase (F-Luc). Several concentrations of the tested compounds were prepared in a cell culture medium and were used to treat the cells for 72 h. The solvent DMSO was added as a control with a final concentration of 0.2% so as not to impact viral replication (data not shown). First, different compound concentrations of up to 100 μM were evaluated for their effect on cell viability; results are reported as the median cytotoxic concentration (CC50). Next, all compounds were screened for their anti-HCV activity at a concentration of 1 µM, and compounds showing ≥50% activity were further tested in several concentrations to calculate the median effective concentration (EC50) values (Table 1 and Table 2). The anti-HCV activity of the analogs 1–32 was estimated by quantifying luciferase activity resulting from viral replication. Cytotoxicity was determined by measuring the intracellular levels of ATP. The selectivity index (SI50) was calculated as the ratio of CC50 to EC50 and was calculated as an indication of the compounds’ safety. We used daclatasvir as a positive control.
(§2) Cells were treated with serial dilutions of the test compounds or the solvent DMSO for 72 h. Antiviral activity and cytotoxicity were determined by measuring virus-derived luciferase activity or intracellular ATP levels, respectively. The median effective concentration (EC50) of the compounds, reducing luciferase signal by 50%, and their median cytotoxic concentration (CC50), causing 50% cell death, were determined by nonlinear regression analysis using the Prism 6.0 software (GraphPad Software Inc.). Daclatasvir was kindly provided by Dr. Marc Windisch (Institut Pasteur Korea).
(§3) ATP was measured using the ViaLight HS BioAssay kit (Lonza) according to the manufacturer’s protocol in a GloMax 20/20 single-tube luminometer (Promega) for 1 s. Values were normalized to total protein amounts.
On the technique in general: In antiviral work, replicon cells carry a viral genome segment that copies itself.

The subject of data set [2] is HCV subgenomic reporter replicon of genotype 1b (strain Con1). Briefly: Anti-HCV 1b activity, luciferase reporter replicon assay in Huh5-2 cells. The conditions noted are these: for EC50: read-out: HCV Replicon 1b EC50; for HCV Replicon 1b SI50: SI50 = CC50/EC50; for fold more potent than six-membered congeners: 1, 9, 17, 21 vs 29, 30, 31, 32 respectively. It is filed as cell-based, Hepatitis C virus. The protocol:
as §1
The stable replicon cell line Huh5-2 (genotype 1b; Con1) (kindly provided by R. Bartenschlager, Heidelberg University, Germany) has been described previously. The stable cell lines Huh7.5-3a and Huh7.5-4a have been constructed with the subgenomic reporter replicons of HCV 3a (S52) S52-SG(Feo)(AII) and HCV 4a (ED43) ED43-SG(Feo)(VYG) (kindly provided by C.M. Rice, The Rockefeller University, NY). Cells were cultured in high glucose (25 mM) Dulbecco’s modified minimal essential medium (Invitrogen), supplemented with 2 mM L-glutamine, 0.1 mM non-essential amino acids, 100 U/mL penicillin, 100 µg/mL streptomycin, and 10% (v/v) fetal calf serum (referred to as complete DMEM). Complete DMEM was supplemented with G418 at 500 μg/mL for Huh5-2, 750 μg/mL for Huh7.5-3a, and 350 μg/mL for Huh7.5-4a.
as §2
Firefly luciferase activity was measured using Luciferase Assay System (Promega), according to the manufacturer’s instructions. Measurements were performed with a GloMax 20/20 single tube luminometer (Promega) for 10 s. Values were normalized to total protein amounts as quantified by Bradford assay (Pierce).
On the technique in general: In a reporter assay the amount or activity of a reporter protein is the signal.

Data set [3] deals with Huh5-2 cells. Briefly: Cytotoxicity by intracellular ATP levels. The note with it: 72 h, read-out: HCV Replicon 1b CC50. It is filed as cell-based. As for the experimental part:
as §1, §2, §3

Where [4] appears, read: Hepatitis C virus, Huh-5-2, 72 h.
[5] abbreviates: Hepatitis C virus, Huh-5-2, Huh5-2 cells, 72 h, luciferase activity.
Setting [6] is: Huh5-2 cells, 72 h, luciferase activity.

In general, CC50 refers to the concentration at which the toxic effect on the cells reaches its halfway point. By EC50 is commonly meant the concentration that produces a half-maximal response.

Read-outs that look alike come from different tables or passages of the source.

`CCCCOC(=O)N[C@H](C(=O)N1CCC[C@H]1C(=O)Nc1ccc2c(c1)Cc1cc(NC(=O)[C@@H]3CCCN3C(=O)[C@@H](NC(=O)OCCCC)c3ccccc3)ccc1-2)c1ccccc1` [Compound 23, Dibutyl((1S,1’S)-((2S,2’S)-(((9H-fluorene-2,7-diyl)bis(azanediyl))bis(carbonyl))bis(pyrrolidine-2,1-diyl))bis(2-oxo-1-phenylethane-2,1-diyl))dicarbamate]: the 50% cytotoxic concentration (CC50) at 72 h in data set [1] is greater than 100000 nM. The EC50 in data set [2] (setting [4]) is 2.25 nM. Also, the “HCV Replicon 1b SI50” value in data set [2] is >44,444.

In the case of `O=C(N[C@H](C(=O)N1CCC[C@H]1C(=O)Nc1ccc2c(c1)Cc1cc(NC(=O)[C@@H]3CCCN3C(=O)[C@@H](NC(=O)OCc3ccccc3)c3ccccc3)ccc1-2)c1ccccc1)OCc1ccccc1` [Compound 24, Dibenzyl((1S,1’S)-((2S,2’S)-(((9H-fluorene-2,7-diyl)bis(azanediyl))bis(carbonyl))bis(pyrrolidine-2,1-diyl))bis(2-oxo-1-phenylethane-2,1-diyl))dicarbamate], in data set [1], the half-maximal cytotoxic concentration (CC50) at 72 h is greater than 100000 nM. Moreover, the 50% effective concentration (EC50) in data set [2] (setting [5]) was found to be 1.12 nM. Besides, the “HCV Replicon 1b SI50” value in data set [2] is recorded as >89,606.

Turning to `COC(=O)N[C@@H](C(=O)N1CCC[C@H]1C(=O)Nc1ccc2c(c1)Cc1cc(NC(=O)[C@@H]3CCCN3C(=O)[C@H](NC(=O)OC)c3ccccc3)ccc1-2)c1ccccc1` [Compound 25, Dimethyl((1R,1’R)-((2S,2’S)-(((9H-fluorene-2,7-diyl)bis(azanediyl))bis(carbonyl))bis(pyrrolidine-2,1-diyl))bis(2-oxo-1-phenylethane-2,1-diyl))dicarbamate], in data set [1], the CC50 at 72 h was 95400 nM. Also, in data set [2] (25 vs 21, 26 vs 22, HCV 1b EC50 ratio), the “fold more active than S counterparts” value is reported as 60 fold. Also, the “times less potent than compound 26” value in data set [2] (HCV 1b EC50 ratio) is “four times less potent”. Moreover, the concentration giving a half-maximal response (EC50) in data set [2] (setting [4]) is 0.142 nM. Moreover, the “HCV Replicon 1b SI50” value in data set [2] is given as 669,874.

As for `CCCCOC(=O)N[C@@H](C(=O)N1CCC[C@H]1C(=O)Nc1ccc2c(c1)Cc1cc(NC(=O)[C@@H]3CCCN3C(=O)[C@H](NC(=O)OCCCC)c3ccccc3)ccc1-2)c1ccccc1` [Compound 27, Dibutyl((1R,1’R)-((2S,2’S)-(((9H-fluorene-2,7-diyl)bis(azanediyl))bis(carbonyl))bis(pyrrolidine-2,1-diyl))bis(2-oxo-1-phenylethane-2,1-diyl))dicarbamate], the CC50 at 72 h in data set [1] is greater than 100000 nM. For the same compound, in data set [2] (HCV 1b EC50 ratio), the “times less potent than compound 26” value is listed as 100 times. Besides, the EC50 in data set [2] (setting [4]) was determined as 4.03 nM. In addition, the “HCV Replicon 1b SI50” value in data set [2] is recorded as >24,795.

For the compound `O=C(N[C@@H](C(=O)N1CCC[C@H]1C(=O)Nc1ccc2c(c1)Cc1cc(NC(=O)[C@@H]3CCCN3C(=O)[C@H](NC(=O)OCc3ccccc3)c3ccccc3)ccc1-2)c1ccccc1)OCc1ccccc1` [Compound 28, Dibenzyl((1R,1’R)-((2S,2’S)-(((9H-fluorene-2,7-diyl)bis(azanediyl))bis(carbonyl)) Bis(pyrrolidine-2,1-diyl))bis(2-oxo-1-phenylethane-2,1-diyl))dicarbamate], the CC50 at 72 h in data set [1] is greater than 100000 nM. The “times less potent than compound 26” value in data set [2] (HCV 1b EC50 ratio) is recorded as 2363 times. In addition, in data set [2] (setting [5]), the half-maximal effective concentration (EC50) stood at 94.5 nM. In addition, the “HCV Replicon 1b SI50” value in data set [2] is recorded as >1,058.

With `COC(=O)N[C@H](C(=O)N1CCCC(C(=O)Nc2ccc3c(c2)Cc2cc(NC(=O)C4CCCN(C(=O)[C@@H](NC(=O)OC)C(C)C)C4)ccc2-3)C1)C(C)C` (some centres unmarked) [Compound 29], in data set [1], the CC50 at 72 h was greater than 100000 nM. The half-maximal effective concentration (EC50) in data set [2] (setting [4]) is 342 nM. In addition, the “HCV Replicon 1b SI50” value in data set [2] is given as greater than 292.

Regarding `COC(=O)N[C@@H](CC(C)C)C(=O)N1CCCC(C(=O)Nc2ccc3c(c2)Cc2cc(NC(=O)C4CCCN(C(=O)[C@H](CC(C)C)NC(=O)OC)C4)ccc2-3)C1` (some centres unmarked) [Compound 30], in data set [1], the CC50 at 72 h was greater than 100000 nM. Besides, the EC50 in data set [2] (setting [4]) came out at 289 nM. The “HCV Replicon 1b SI50” value in data set [2] was greater than 346.

On to `CCC(C)[C@H](NC(=O)OC)C(=O)N1CCCC(C(=O)Nc2ccc3c(c2)Cc2cc(NC(=O)C4CCCN(C(=O)[C@@H](NC(=O)OC)C(C)CC)C4)ccc2-3)C1` (some centres unmarked) [Compound 31], for which the CC50 at 72 h in data set [1] stood at 98300 nM. Also, the EC50 in data set [2] (setting [4]) came out at 296 nM. For the same compound, the “HCV Replicon 1b SI50” value in data set [2] was found to be 333.

For `COC(=O)N[C@H](C(=O)N1CCCC(C(=O)Nc2ccc3c(c2)Cc2cc(NC(=O)C4CCCN(C(=O)[C@@H](NC(=O)OC)c5ccccc5)C4)ccc2-3)C1)c1ccccc1` (some centres unmarked) [Compound 32], the 50% cytotoxic concentration (CC50) at 72 h in data set [1] was greater than 100000 nM. Also, in data set [2] (setting [4]), the EC50 is 304 nM. In data set [2], the “HCV Replicon 1b SI50” value was greater than 328.

For the compound `CC(C)(C)OC(=O)N1CCCC(C(=O)Nc2ccc3c(c2)Cc2cc(NC(=O)C4CCCN(C(=O)OC(C)(C)C)C4)ccc2-3)C1` (centres unmarked) [IV, Di-tert-butyl3,3’-(((9H-fluorene-2,7diyl)bis(azanediyl))bis(carbonyl))bis(piperidine-1-carboxylate)], the CC50 at 72 h in data set [1] is 45000 nM. Also, the EC50 in data set [2] (setting [5]) was greater than 1000 nM.

“Dibenzyl((2S,2’S)-((2S,2’S)-(((9H-fluorene-2,7-diyl)bis(azanediyl))bis(carbonyl))bis(pyrrolidine-2,1-diyl))bis(3-methyl-1-oxopentane-1,2-diyl))dicarbamate [Compound 12]”: the CC50 in data set [3] was found to be 46400 nM. The concentration for a half-maximal effect (EC50) in data set [2] (setting [6]) was greater than 1000 nM.

For the compound “Dibenzyl((2S,2’S)-((2S,2’S)-(((9H-fluorene-2,7-diyl)bis(azanediyl))bis(carbonyl))bis(pyrrolidine-2,1-diyl))bis(4-methyl-1-oxopentane-1,2-diyl))dicarbamate [Compound 20]”, in data set [3], the CC50 worked out at 98700 nM. Further, the half-maximal effective concentration (EC50) in data set [2] (setting [6]) was greater than 1000 nM.

As for “Diethyl((2S,2’S)-((2S,2’S)-(((9H-fluorene-2,7 diyl)bis(azanediyl))bis(carbonyl)) bis(pyrrolidine-2,1-diyl))bis(4-methyl-1-oxopentane-1,2-diyl))dicarbamate [Compound 18]”, the CC50 in data set [3] is greater than 100000 nM. In data set [2] (setting [6]), the half-maximal effective concentration (EC50) turned out to be 151 nM. The “HCV Replicon 1b SI50” value in data set [2] is recorded as greater than 664.

Take “Diethyl((2S,2’S)-((2S,2’S)-(((9H-fluorene-2,7-diyl)bis(azanediyl))bis(carbonyl))bis(pyrrolidine-2,1-diyl))bis(3-methyl-1-oxopentane-1,2-diyl))dicarbamate [Compound 10]”: the CC50 in data set [3] was 85500 nM. In addition, the “fold more potent than congener with D-leucine moiety” value in data set [2] (HCV 1b EC50 ratio) was 18 fold. In data set [2] (setting [6]), the concentration for a half-maximal effect (EC50) came to 0.137 nM. Besides, the “HCV Replicon 1b SI50” value in data set [2] was 622,344.

On to “Dimethyl((2S,2’S)-((2S,2’S)-(((9H-fluorene-2,7-diyl)bis(azanediyl))bis (carbonyl)) bis(pyrrolidine-2,1-diyl))bis(4-methyl-1-oxopentane-1,2-diyl))dicarbamate [Compound 17]”, for which, in data set [3], the half-maximal cytotoxic concentration (CC50) was greater than 100000 nM. For the same compound, the “fold more potent than six-membered congeners” value in data set [2] (HCV 1b EC50 ratio) worked out at 28 fold. In data set [2] (setting [6]), the half-maximal effective concentration (EC50) amounted to 10.7 nM. Also, the “HCV Replicon 1b SI50” value in data set [2] was greater than 9381.

In the case of “Dimethyl((2S,2’S)-((2S,2’S)-(((9H-fluorene-2,7-diyl)bis(azanediyl))bis(carbonyl))bis(pyrrolidine-2,1-diyl))bis(3-methyl-1-oxopentane-1,2-diyl))dicarbamate [Compound 9]”, the 50% cytotoxic concentration (CC50) in data set [3] was greater than 100000 nM. Further, in data set [2] (HCV 1b EC50 ratio), the “fold more potent than six-membered congeners” value is given as 11 fold and the “times less active than R congener compound 13” value is “around 340 times”. Further, in data set [2] (setting [6]), the 50% effective concentration (EC50) amounted to 27.5 nM. For the same compound, in data set [2], the “HCV Replicon 1b SI50” value is on record as greater than 3636.
